Results from the supplement of paper PMC13380429.

Assays:
Conditions in all cases: 72 h
Vero E6 [1] = experiment: cell viability relative to DMSO; higher = less toxic
HepG2 [2] = experiment: as above
U2OS [3] = experiment: as above
Calu-3 [4] = experiment: as above
Caco-2 [5] = experiment: as above
Vero E6 [6] = experiment: drug sensitivity score (DSS) for viability; higher = more toxic; extreme values may be limits of the assay
HepG2 [7] = experiment: as above
U2OS [8] = experiment: as above
Calu-3 [9] = experiment: as above
Caco-2 [10] = experiment: as above
Vero E6 [11] = experiment: relative viability EC50 (midpoint between 100% and the lowest measured viability); higher = less toxic
HepG2 [12] = experiment: as above
U2OS [13] = experiment: as above
Calu-3 [14] = experiment: as above
Caco-2 [15] = experiment: as above

Row | Compound | cell viability (Vero E6 [1]; 1 nM) [%] | cell viability (Vero E6 [1]; 10 nM) [%] | cell viability (Vero E6 [1]; 100 nM) [%] | cell viability (Vero E6 [1]; 1000 nM) [%] | cell viability (Vero E6 [1]; 10000 nM) [%] | cell viability (HepG2 [2]; 1 nM) [%] | cell viability (HepG2 [2]; 10 nM) [%] | cell viability (HepG2 [2]; 100 nM) [%] | cell viability (HepG2 [2]; 1000 nM) [%] | cell viability (HepG2 [2]; 10000 nM) [%] | cell viability (U2OS [3]; 1 nM) [%] | cell viability (U2OS [3]; 10 nM) [%] | cell viability (U2OS [3]; 100 nM) [%] | cell viability (U2OS [3]; 1000 nM) [%] | cell viability (U2OS [3]; 10000 nM) [%] | cell viability (Calu-3 [4]; 1 nM) [%] | cell viability (Calu-3 [4]; 10 nM) [%] | cell viability (Calu-3 [4]; 100 nM) [%] | cell viability (Calu-3 [4]; 1000 nM) [%] | cell viability (Calu-3 [4]; 10000 nM) [%] | cell viability (Caco-2 [5]; 1 nM) [%] | cell viability (Caco-2 [5]; 10 nM) [%] | cell viability (Caco-2 [5]; 100 nM) [%] | cell viability (Caco-2 [5]; 1000 nM) [%] | cell viability (Caco-2 [5]; 10000 nM) [%] | drug sensitivity score (Vero E6 [6]) | drug sensitivity score (HepG2 [7]) | drug sensitivity score (U2OS [8]) | drug sensitivity score (Calu-3 [9]) | drug sensitivity score (Caco-2 [10]) | relative viability EC50 (Vero E6 [11]) [µM] | relative viability EC50 (HepG2 [12]) [µM] | relative viability EC50 (U2OS [13]) [µM] | relative viability EC50 (Calu-3 [14]) [µM] | relative viability EC50 (Caco-2 [15]) [µM]
1 | O=S(=O)(O)c1ccc(-c2c3nc(c(-c4ccc(S(=O)(=O)O)cc4)c4ccc([nH]4)c(-c4ccc(S(=O)(=O)O)cc4)c4nc(c(-c5ccc(S(=O)(=O)O)cc5)c5ccc2[nH]5)C=C4)C=C3)cc1 [TPPS4] | 110 | 102 | 93.6 | 95.7 | 81.9 | 100 | 102 | 104 | 107 | 80.5 | 101 | 94.2 | 105 | 105 | 91.6 | 94.2 | 93.1 | 109 | 99 | 90.1 | 107 | 87.2 | 91.4 | 96.4 | 101 | 0.7 | 0.3 | 0 | 0 | 0 | > 10 | > 10 | > 10 | > 10 | > 10
2 | COc1ccc(CCN(C)CCc2ccc(OC)c(OC)c2)cc1OC [YS-035] | 100 | 99.9 | 98.3 | 97.8 | 101 | 101 | 103 | 105 | 96.3 | 110 | 99.3 | 106 | 96.7 | 99.9 | 96.6 | 98.2 | 106 | 93.9 | 95.5 | 102 | 95.6 | 100 | 90.6 | 90.4 | 97.4 | 0 | 0 | 0 | 0 | 0 | > 10 | > 10 | > 10 | > 10 | > 10
3 | CCN(C(C)=O)c1cccc(-c2ccnc3c(C#N)cnn23)c1 [ZALEPLON] | 97.5 | 99.2 | 99.3 | 101 | 95 | 90.5 | 95.6 | 91 | 105 | 89.3 | 105 | 104 | 102 | 103 | 96 | 93.9 | 96.7 | 96.7 | 86.1 | 90.7 | 96.6 | 102 | 100 | 104 | 96.4 | 0 | 0 | 0 | 0 | 0 | > 10 | > 10 | > 10 | > 10 | > 10
4 | CC(=O)Oc1ccccc1C(=O)Oc1ccccc1C(=O)O [acetylsalicylsalicylic-acid] | 101 | 101 | 102 | 95.9 | 99.9 | 100 | 106 | 100 | 108 | 92.4 | 96.1 | 96.8 | 103 | 104 | 106 | 95.3 | 78.8 | 99.3 | 97 | 91.9 | 103 | 96.1 | 101 | 101 | 103 | 0 | 0 | 0 | 0 | 0 | > 10 | > 10 | > 10 | > 10 | > 10
5 | CSCC[C@H](NC(=O)[C@H](CC(C)C)NC(=O)[C@@H](Cc1c[nH]c2ccccc12)NC(=O)[C@H](Cc1ccccc1)N(C)C(=O)[C@@H](Cc1c[nH]c2ccccc12)NC(=O)[C@@H](N)CCCNC(=N)N)C(N)=O [antagonist-g] | 96.2 | 97 | 102 | 85.6 | 96.3 | 104 | 98.1 | 103 | 84.8 | 105 | 99.9 | 93.1 | 97.7 | 97 | 97.4 | 105 | 91 | 98.8 | 89.3 | 111 | 93.8 | 89.7 | 96.3 | 75.6 | 122 | 0 | 0 | 0 | 0 | 0 | > 10 | > 10 | > 10 | > 10 | > 10
6 | CCCC1(CCC)CCC2(CCN(CCCN(CC)CC)C2)CC1 [atiprimod] | 97.9 | 98.7 | 101 | 92.1 | 16.9 | 91.1 | 94.8 | 93.2 | 83.3 | 0 | 101 | 105 | 95.8 | 96.1 | 14.6 | 103 | 103 | 101 | 86.9 | 0.7 | 99.2 | 94.7 | 98.4 | 94.9 | 20.7 | 5.9 | 8.3 | 5.3 | 7.7 | 5.1 | 2.38 | 1.89 | 2.82 | 2.1 | 2.66
7 | NC(=O)[C@@H]1CC[C@@H]2CN1C(=O)N2OS(=O)(=O)O [avibactam] | 95 | 96.5 | 97.6 | 97.1 | 98.6 | 114 | 109 | 90.9 | 98.4 | 97.8 | 97.2 | 94.6 | 101 | 96.9 | 98.7 | 94.8 | 81.7 | 104 | 91.3 | 104 | 101 | 92.5 | 92.5 | 95.7 | 92.7 | 0 | 0 | 0 | 0 | 0 | > 10 | > 10 | > 10 | > 10 | > 10
8 | COc1ccc2cc3[n+](cc2c1OC)CCc1cc2c(cc1-3)OCO2 [berberine] | 107 | 93 | 95.3 | 107 | 96.1 | 99.8 | 103 | 87.7 | 92.1 | 30.6 | 106 | 96.8 | 103 | 93.7 | 77.2 | 94.3 | 101 | 105 | 101 | 97.3 | 110 | 106 | 97.4 | 86.9 | 82.5 | 0 | 5.1 | 1.6 | 0 | 1.5 | > 10 | 2.23 | > 10 | > 10 | > 10
9 | Brc1c(NC2=NCCN2)ccc2nccnc12 [brimonidine] | 99 | 102 | 97.5 | 100 | 102 | 98.1 | 97.6 | 96.7 | 107 | 105 | 100 | 105 | 99.6 | 96.6 | 106 | 103 | 98.1 | 88.1 | 97.2 | 103 | 107 | 97.2 | 108 | 90.7 | 103 | 0 | 0 | 0 | 0 | 0 | > 10 | > 10 | > 10 | > 10 | > 10
10 | C=C1/C(=C\C=C2/CCC[C@]3(C)[C@@H]([C@H](C)/C=C/[C@@H](O)C4CC4)CC[C@@H]23)C[C@@H](O)C[C@@H]1O [calcipotriol] | 97.5 | 96.7 | 98.2 | 92.3 | 91.9 | 101 | 88.5 | 95 | 99.6 | 94.6 | 99.5 | 96.9 | 99 | 94.8 | 93.5 | 95.4 | 108 | 102 | 93.7 | 96 | 94.7 | 88.6 | 99.6 | 88.3 | 89.9 | 0 | 0 | 0 | 0 | 0 | > 10 | > 10 | > 10 | > 10 | > 10
11 | c1coc(-c2nnc3sc(C4CCCCC4)nn23)c1 [cardionogen-1] | 98.3 | 97.1 | 95.5 | 98 | 86.6 | 98.7 | 97.1 | 99.4 | 88.3 | 44.6 | 95 | 100 | 95.9 | 97.8 | 93.3 | 109 | 97.4 | 109 | 102 | 97.1 | 100 | 94.7 | 104 | 81.1 | 89.7 | 0.3 | 4.9 | 0 | 0 | 2.2 | > 10 | 1.69 | > 10 | > 10 | > 10
12 | CC(C)c1ccc(C(=O)N=C(N)N)cc1S(C)(=O)=O [cariporide] | 102 | 101 | 106 | 108 | 92.3 | 102 | 84.4 | 89.7 | 98 | 95.6 | 100 | 98.2 | 100 | 96.1 | 97 | 102 | 96.7 | 93.6 | 96.3 | 106 | 109 | 107 | 102 | 89.7 | 107 | 0 | 0 | 0 | 0 | 0 | > 10 | > 10 | > 10 | > 10 | > 10
13 | NCCC(=O)N[C@@H](Cc1c[nH]cn1)C(=O)O [carnosine] | 94.3 | 95.3 | 95 | 95.5 | 17.9 | 111 | 101 | 97 | 101 | 12 | 96 | 97.2 | 92.3 | 99.1 | 28.7 | 95 | 93.4 | 104 | 99.4 | 48.6 | 99.5 | 97.8 | 92.3 | 88.6 | 15.4 | 5.2 | 4.8 | 4.1 | 2.8 | 6.6 | 2.74 | 3.22 | 3.07 | 3.08 | 2.08
